Source: ChEMBL document CHEMBL4000210, “Mitigation of reactive metabolite formation for a series of 3-amino-2-pyridone inhibitors of Bruton's tyrosine kinase (BTK)” (Bioorg Med Chem Lett, 2017)

test system: Liver; experiment: Drug level in human liver microsomes treated with 6-tert-butyl-8-fluoro-2-(2-(hydroxymethyl)-3-(1-methyl-5-(5-(methylsulfonyl)pyridin-2-ylamino)-6-oxo-1,6-dihydropyridin-3-yl)phenyl)phthalazin-1(2H)-one by UPLC-MS/MS method; type: ADME, microsome; settings: not given

Drug metabolism | SMILES
Metabolite_Detected | CN1C(=O)/C(=N/c2ccc(S(C)(=O)=O)cn2)C=C(c2cccc(-n3ncc4cc(C(C)(C)CO)cc(F)c4c3=O)c2CO)C1SC[C@H](NC(=O)CC[C@H](N)C(=O)O)C(=O)NCC(=O)O (stereo not given in full)
Metabolite_Detected | CN1C(=O)/C(=N/c2ccc(S(C)(=O)=O)cn2)C=C(c2cccc(-n3ncc4cc(C(C)(C)C)cc(F)c4c3=O)c2CO)C1SC[C@H](NC(=O)CC[C@H](N)C(=O)O)C(=O)NCC(=O)O (stereo not given in full)

test system: Liver; experiment: Drug metabolism in human liver microsomes assessed as covalent binding per mg protein at 10 uM preincubated for 5 mins followed by NADPH addition measured after 30 mins by liquid scintillation counting; type: ADME, microsome; settings: 0.5 h

Drug metabolism | SMILES
294 pmol | CN1CCN(c2ccc(Nc3cc(-c4cccc(-n5ccc6cc(C7CC7)cc(F)c6c5=O)c4CO)cn(C)c3=O)nc2)CC1
422 pmol | Cn1cc(-c2cccc(N3CCc4cc(C(C)(C)C)ccc4C3=O)c2[14CH2]O)cc(Nc2ccc(C(=O)N3CCOCC3)cn2)c1=O
386 pmol | Cn1cc(-c2cccc(-n3ncc4cc(C(C)(C)C)cc(F)c4c3=O)c2[14CH2]O)cc(Nc2ccc(S(C)(=O)=O)cn2)c1=O
459 pmol | CN1CCN(c2ccc(Nc3cc(-c4cccc(-n5ncc6cc(C(C)(C)C)cc(F)c6c5=O)c4[14CH2]O)cn(C)c3=O)nc2)CC1
26 pmol | Cn1nc(-c2cccc(-n3ncc4cc(C(C)(C)C)cc(F)c4c3=O)c2[14CH2]O)cc(Nc2ccc(C(=O)N3CCOCC3)cn2)c1=O
52 pmol | CN(C)c1ccc2c(c1)CCN(c1cccc(-c3cc(Nc4ccc(C(=O)N5CCOCC5)cn4)c(=O)n(C)c3)c1[14CH2]O)C2=O
294 pmol | Cn1cc(-c2cccc(-n3ncc4cc(C(C)(C)C)cc(F)c4c3=O)c2[14CH2]O)cc(Nc2ccc(C(=O)N3CCOCC3)cn2)c1=O

test system: Liver; experiment: Drug metabolism in human liver microsomes assessed as covalent binding per mg protein at 10 uM in absence of NADPH measured after 30 mins by liquid scintillation counting; type: ADME, microsome; settings: 0.5 h

Drug metabolism | SMILES
49 pmol | CN1CCN(c2ccc(Nc3cc(-c4cccc(-n5ncc6cc(C(C)(C)C)cc(F)c6c5=O)c4[14CH2]O)cn(C)c3=O)nc2)CC1
